According to US9586901B2, “Lactams” (UNILEVER PLC, priority 2006, dated 2017):

How the values were obtained:
[1] = test system: V. fischeri luxRI system; experiment: N-acylated homoserine lactone (AHL) quorum sensing assay, GFP reporter strain; type: cell-based, E. coli; conditions: for ID40 at 3 nM OHHL: Table 4, number in parentheses, amount of compound lowering relative activity to 40%
Procedure: Compounds of the present invention were compared to compounds of the prior art in order using an AHL-quorum sensing assay which utilises a reporter strain that expresses Green Fluorescent Protein (GFP) in the presence of AHL signals. The assay is performed by measuring GFP output in the presence of the compound to be measured and comparing the output to a control. By using multiple samples at varying concentrations of compound and AHL, an inhibition index of compound activity can be generated. The inhibition index used in the present example is the relative amount of compound required to reduce GFP expression to 40% of the control. The inhibition index is termed AIC40. Lower values of AIC40 represent better inhibitors of the AHL quorum sensing system.
The reporter strain of bacterium used in this assay is E. coli into which the V. fischeri luxRI system has been engineered. A gfp gene is fused to the QS controlled luxI promoter as is described in (Andersen et al., 2001, and Andersen et al, 1998).
Measurement of AIC40 (ID40 at 3 nM OHHL)
Determination of the activity of compounds using the E. coli based luxRI construct was performed as follows.
In a 15 mL plastic tube, mix 3 mL of o.n. culture of the lux reporter strain with 12 mL fresh medium, incubate at 37° C. Label six tubes, 10, 20, two 50 and two 100. To each of the tubes, add OHHL (3-oxohexanoyl homoserine lactone) to a final concentration of 10, 20, 50, or 100 nM respectively in the AB medium (add enough medium to distribute across the appropriate number of wells). To the first row of the microplate (row A), add 200 ul of the OHHL/AB mixture. To the remaining rows (B-H) add 100 ul of the OHHL/AB mixture. To the first row (A) add compounds to be tested to the 200 ul mixture of OHHL/AB. Make a dilution series in the first 7 rows by transferring 100 μL from wells in row 1 to wells in row 2 and so on. Discard the remaining 100 μL from row 7. Add 100 μL diluted lux monitor to each well. Incubate the plate 2 hours at 37° C. and measure green fluorescence using the “Victor” plate reader.
Calculate ID40 for each column. To do this, calculate the relative activity in each well. […] Make a plot for each concentration of OHHL vs. the range of compound concentrations used. Calculate the amount of compound needed to lower the relative activity to 40%, this is termed inhibiting dose 40%, ID40. For each compound an inhibition index, AIC40, is found as follows: plot ID40 against its respective AHL concentration; AIC40 is the slope of the best straight line through the plotted points and origin.
The methodology for this assay is set out in 2(a) above.

[2] = test system: LasR; experiment: LasR assay (unstable gfp fused to the elastase promoter); type: cell-based; conditions: Pseudomonas aeruginosa, read-out: LasR (conc)
Procedure: Compounds of the present invention were also assayed using a LasR assay. The LasR assay provides a measurement of quorum sensing inhibition activity. The higher the percentage inhibition. […] In the LasR assay, an unstable gfp has been fused to the elastase promoter, so that the amount of Gfp is regulated by the QS system. The plasmid is put into Pseudomonas aeruginosa which makes its own AHL signals. The assay is performed by adding the compounds to be tested to the system at the beginning of the experiment, at different concentrations. Gfp expression is measured at different times during growth, ending at the 24 h time point. The percentage fluorescence was determined at the time point when the fluorescence reached its maximum in the control, usually around 11-12 h after inoculation.

[3] = test system: Staphylococcus epidermidis; experiment: S. epidermidis growth inhibition (OD600 growth curves); type: cell-based; conditions: concentration of compound that significantly alters growth rate or final growth yield
Procedure: The growth inhibition of Staphylococcus epidermidis by the compounds of the present invention was determined by growing S. epidermidis in 96 well microtitre plates in Trypticase Soy Broth plus 0.5% glucose in a Wallac Victor2 microplate reader. Each compound was added to the wells at different concentrations and a no-compound control and a set of blank wells were also used. The OD600 was measured hourly.

[4] = test system: S. epidermidis biofilm; experiment: Inhibition of biofilm formation in petri dishes, S. epidermidis; type: cell-based; conditions: percent reduction of control
Procedure: (§1) Biofilm formation in petri dishes was measured using the following protocol as a compromise between flow cells and microtitire plate based assays. The method increases the number of replicates (relative to flow cells) that can be tested while still generating a biofilm that has typical structures, such as microcolonies, which are important as differentiated structures within the biofilm. The method consists of placing a surface, such as a glass slide (for unattached compounds) or a modified plastic coupon (for covalently attached compounds) on the bottom of a sterile petri dish and adding growth medium. The bacteria are inoculated into the dish and allowed to incubate at the appropriate temperature at 50 rpm. The medium is replaced at 24 h and allowed to incubate a further 24 h, after which time, the slides are removed and rinsed to remove loosely attached cells. For monitoring biofilm formation on glass slides, the cells are either stained with a suitable fluorescent stain and are visualised using the confocal microscope and the biofilm (as % surface coverage) is quantified, or the biofilm is stained with crystal violet, washed thoroughly to remove excess stain, and subsequently destained and the absorbance at […] is measured to determine the amount of biofilm, as a function of crystal violet staining.

[5] = test system: P. aeruginosa biofilm; experiment: Inhibition of biofilm formation in petri dishes, P. aeruginosa; type: cell-based; conditions: percent reduction of control
Procedure: as §1

[6] = test system: Pseudomonas aeruginosa PAO1 (wt); experiment: Pulmonary model of infection: mice challenged with bacteria/seaweed alginate through the trachea; type: in vivo
Procedure: The first group was treated with 5-methylene-4-phenyl-dihydro-pyrrol-2-one (C219) as 12 μg/g body weight, given as injections twice a day for three days and the second group were treated with vehicle. (p=0.0008).
This model is reminiscent of the situation in CF patients or patients with a dysfunctional muccociliary escalator.
The treatment dosage of 5-methylene-4-phenyl-dihydro-pyrrol-2-one (C219) was 12 μg/g body weight, given as injections twice a day.
Mice were challenged with Pseudomonas aeruginosa PAO1 (wt) 5.2×10^6 CFU/lung (1.3×10^8 CFU/ml). Each group holds 10 mice, the treatments with C219 and Vehicle lasted for three days. The mortality was 10% in C219 and 30% in Vehicle groups. At day 5, the surviving mice were sacrificed.

[7] = test system: Murine L929 cells; experiment: Cytotoxicity study, L929 cell number after 48 hour culture; type: cell-based; conditions: for Mean (cell number): L929, 48 hour; for % Inhibition: cell number vs non-challenged cultures
Procedure: Murine L929 cells are established at low density and, during the testing period, grow to confluency in plastic petri dishes. 24 hours after the dishes are inoculated, the medium on the test dishes is aspirated and replaced with a medium containing the compound to be tested. The cell monolayer is then cultured for a further 48 hour period. At the end of the test period, cells are harvested from the dishes and their numbers assessed and compared with unperturbed cultures. Differences in cell numbers are expressed as a percentage inhibition in comparison to non-challenged cultures.

[8] = test system: E. coli biofilm; experiment: Inhibition of biofilm formation in petri dishes, E. coli; type: cell-based; conditions: 5 ug/ml; percent reduction of control
Procedure: as §1

[9] = Table 4 comparative results, first number of the cell, lower = better
[10] = inhibition index: slope of ID40 against AHL concentration, lower = better inhibitor, NE = no effect
[11] = 40 μg/ml, 30% = cytotoxic potential

C=C1C(c2ccccc2)=CC(=O)N1C
ID40 at 3 nM OHHL ([1]; unit not given): 163.26
AIC40 [1, 9]: 52.76
AIC40 [1, 10]: 52.76
inhibition at 50 µg/mL [2]: 40%

C=C1NC(=O)C=C1Cc1ccccc1
ID40 at 3 nM OHHL ([1]; unit not given): 239.79
AIC40 [1, 9]: 69.45
AIC40 [1, 10]: 69.45
inhibition at 50 µg/mL [2]: 61%

C=C1NC(=O)C=C1c1ccc(C(F)(F)F)cc1
AIC40 [1, 10]: 1
inhibition at 25 µg/mL [2]: 54%
minimal effective concentration [3]: 1 µg/mL

C=C1NC(=O)C=C1c1cccc(C(F)(F)F)c1
AIC40 [1, 10]: 4.6
inhibition at 25 µg/mL [2]: 40%
minimal effective concentration [3]: 0.5 µg/mL

C=C1NC(=O)C=C1c1cccc(F)c1
AIC40 [1, 10]: 1.3
inhibition at 25 µg/mL [2]: 70%
minimal effective concentration [3]: 0.5 µg/mL

C=C1NC(=O)C=C1c1ccccc1F
AIC40 [1, 10]: 1.7
inhibition at 25 µg/mL [2]: 60%
minimal effective concentration [3]: 20 µg/mL
S. epidermidis biofilm ([4]; 0.3 ug/ml): 60% (0.3 ug/ml)

CC1(O)NC(=O)C=C1c1ccc(F)cc1 (stereo not shown)
inhibition at 100 µg/mL [2]: 28%
minimal effective concentration [3]: 100 µg/mL

CC1(O)NC(=O)C=C1c1ccccc1F (stereo not shown)
AIC40 [1, 10]: 9.9
inhibition at 100 µg/mL [2]: 40%
minimal effective concentration [3]: > 100 µg/mL
P. aeruginosa biofilm ([5]; 20 ug/ml): 12% (20 ug/ml)
S. epidermidis biofilm ([4]; 50 ug/ml): 17% (50 ug/ml)

CC1(O)NC(=O)C=C1c1cccc(F)c1 (stereo not shown)
minimal effective concentration [3]: > 100 µg/mL

COc1cccc(C2=CC(=O)NC2(C)O)c1 (stereo not shown)
minimal effective concentration [3]: > 50 µg/mL

COc1ccccc1C1=CC(=O)NC1(C)O (stereo not shown)
inhibition at 100 µg/mL [2]: 41%
minimal effective concentration [3]: > 50 µg/mL

CC1(O)NC(=O)C=C1Cc1ccccc1 (stereo not shown)
minimal effective concentration [3]: > 100 µg/mL

C=C1NC(=O)C=C1c1ccccc1 [Compound 219, 5-methylene-4-phenyl-dihydro-pyrrol-2-one]
AIC40 [1, 9]: significantly better AIC40 values than compounds 198 and 205
mortality ([6]; 12 μg/g body weight, injections twice a day for three days, 10 mice per group, Vehicle 30%): 10%
severity (LIMP) of P aeruginosa lung infection ([6]; LIMP = fraction of total lung area showing inflammation, 12 μg/g twice a day for three days, vs vehicle): significantly reduced the severity (LIMP)
lung bacterial load ([6]; day 5, 12 μg/g twice a day for three days, vs Vehicle, p=0.0008 (FIG. 1)): significantly reduced the lung bacterial load
Mean (cell number) ([7]; 10 μg/ml): 5.41E+05
% Inhibition ([7]; 10 μg/ml): −10.3%
Mean (cell number) ([7]; 20 μg/ml): 4.95E+05
% Inhibition ([7]; 20 μg/ml): −1.0%
Mean (cell number) ([7]; 40 μg/ml, E+05 = ×10^5): 4.74E+05
% Inhibition [7, 11]: 3.4%
cytotoxicity (in words) ([7]; compared with compounds 226 and 223): surprisingly little or no cytotoxicity

CC(C)CN1C(=O)C(c2ccccc2)=CC1=C(Br)Br [Compound 223]
Mean (cell number) ([7]; 10 μg/ml): 3.31E+05
% Inhibition ([7]; 10 μg/ml): 24.1%
Mean (cell number) ([7]; 20 μg/ml): 2.94E+05
% Inhibition ([7]; 20 μg/ml): 32.5%
Mean (cell number) ([7]; 40 μg/ml, E+05 = ×10^5): 2.07E+05
% Inhibition [7, 11]: 52.4%

CC(C)CN1C(=O)C=C(c2ccccc2)C1=C(Br)Br [Compound 226]
Mean (cell number) ([7]; 5 μg/ml): 3.41E+05
% Inhibition ([7]; 5 μg/ml): 21.8%
Mean (cell number) ([7]; 10 μg/ml): 2.14E+05
% Inhibition ([7]; 10 μg/ml): 50.9%
Mean (cell number) ([7]; 20 μg/ml): 2.42E+05
% Inhibition ([7]; 20 μg/ml): 44.4%
Mean (cell number) ([7]; 40 μg/ml, E+05 = ×10^5): 1.67E+05
% Inhibition [7, 11]: 61.6%

C=C1NC(=O)C=C1c1ccc(F)cc1 [Compound 257]
AIC40 [1, 9]: significantly better AIC40 values than compounds 198 and 205

C=C1NC(=O)C=C1c1ccc(OC)cc1 [Compound 294]
AIC40 [1, 9]: significantly better AIC40 values than compounds 198 and 205

C=C1NC(=O)C=C1c1ccc(Br)cc1 [Compound 295]
AIC40 [1, 9]: significantly better AIC40 values than compounds 198 and 205

CCO [Ethanol]
Mean (cell number) ([7]; 4% Ethanol): 3.40E+05
% Inhibition ([7]; 4% Ethanol): 30.7%
Mean (cell number) ([7]; 5% Ethanol): 3.09E+05
% Inhibition ([7]; 5% Ethanol): 36.9%
Mean (cell number) ([7]; 7.5% Ethanol): 7.63E+04
% Inhibition ([7]; 7.5% Ethanol): 84.5%

C=C1NC(=O)C=C1c1ccccc1 [drawing 20]
ID40 at 3 nM OHHL ([1]; unit not given): 16.2
AIC40 [1, 9]: 1.1
AIC40 [1, 10]: 1.1
inhibition at 50 µg/mL [2]: 80%
minimal effective concentration [3]: 5 µg/mL
P. aeruginosa biofilm ([5]; 10 ug/ml): 88% (10 ug/ml)
E. coli biofilm [8]: 95% (5 ug/ml)

C=C1NC(=O)C=C1c1ccc(F)cc1 [drawing 21]
ID40 at 3 nM OHHL ([1]; unit not given): 17.61
AIC40 [1, 9]: 4.61
AIC40 [1, 10]: 4.61
inhibition at 50 µg/mL [2]: 61%
minimal effective concentration [3]: 20 µg/mL
P. aeruginosa biofilm ([5]; 12.5 ug/ml): 78% (12.5 ug/ml)
S. epidermidis biofilm ([4]; 10 ug/ml): 40% (10 ug/ml)

C=C1NC(=O)C=C1c1ccc(OC)cc1 [drawing 24]
ID40 at 3 nM OHHL [1]: 61 nM
AIC40 [1, 9]: 5.4
AIC40 [1, 10]: 5.4
inhibition at 25 µg/mL [2]: 36%
P. aeruginosa biofilm ([5]; 25 ug/ml): 76% (25 ug/ml)

O=C1C=C(Br)/C(=C/Br)N1Cc1ccccc1 [reference compound]
AIC40 [1, 9]: 27

CCCC(O)C1=C(Br)/C(=C/Br)N(c2ccccc2)C1=O (stereo not shown) [reference compound]
AIC40 [1, 9]: 99
